Test results from patent US8030547B2, “Gene coding for acetolactate synthase” (priority 2002, dated 2011).

Assays:
Format in all cases: biochemical, rice (Oryza sativa var. Kinmaze)
[1] = molecular target: T1, GST fusion P171H/W548L/S627I mutant ALS protein (Oryza sativa subsp. japonica, UniProt Q6K2E8, P171H/S627I/W548L); test: Herbicide sensitivity of ALS protein expressed in E. coli (crude enzyme solution), P171H/W548L/S627I; conditions: for RS ratio/ predicted RS ratio / Predicted RS ratio: P171H/W548L/S627I mutant; for RS ratio: P171H/W548L/S627I mutant vs wild type; for Predicted RS ratio: product of RS ratios of the 1-point mutants
T1 construct: made in house; host or cells: E. coli, pGEX-2T(ALS-P171H, W548L, S627I mutant); crude supernatant
T1 sequence (Q6K2E8 44-644 P171H/W548L/S627I): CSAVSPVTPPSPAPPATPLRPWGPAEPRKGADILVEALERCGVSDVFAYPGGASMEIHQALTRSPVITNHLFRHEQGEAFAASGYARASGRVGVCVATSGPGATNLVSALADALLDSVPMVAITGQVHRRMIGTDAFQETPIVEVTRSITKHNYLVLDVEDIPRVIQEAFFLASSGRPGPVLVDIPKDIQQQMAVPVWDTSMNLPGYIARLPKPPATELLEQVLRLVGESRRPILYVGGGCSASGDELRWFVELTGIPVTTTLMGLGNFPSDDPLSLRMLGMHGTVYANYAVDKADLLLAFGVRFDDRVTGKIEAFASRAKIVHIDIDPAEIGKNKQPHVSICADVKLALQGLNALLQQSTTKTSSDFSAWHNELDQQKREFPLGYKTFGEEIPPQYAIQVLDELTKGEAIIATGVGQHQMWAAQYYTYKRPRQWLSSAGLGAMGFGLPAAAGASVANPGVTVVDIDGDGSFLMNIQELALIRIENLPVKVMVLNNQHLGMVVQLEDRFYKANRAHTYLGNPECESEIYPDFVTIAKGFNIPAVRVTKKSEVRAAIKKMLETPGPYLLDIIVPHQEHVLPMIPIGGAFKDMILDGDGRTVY
Experimental: (§1) ALS activity resulting from the mutant ALS protein contained in the eluted fractions apportioned into each test tube for apportioning was measured as follows. A reaction solution to be used in a measurement reaction was prepared by mixing an eluted fraction to be measured with a solution comprising 20 mM sodium pyruvate, 0.5 mM TPP, 0.5 mM MgCl2, 10 μM FAD and 20 mM potassium phosphate buffer (pH 7.5). One ml of this reaction solution was used. After the eluted fraction to be measured was added, the measurement reaction was performed at 30° C. for 40 to 60 minutes. Then, the reaction was stopped by addition of 0.1 ml of 6N sulfuric acid (or 0.25 N sodium hydroxide).
(§2) After the reaction was stopped, the reaction solution was incubated at 60° C. for 10 minutes, thereby converting acetolactate contained in the reaction solution to acetoin.
(§3) Then, to quantify acetoin contained in the reaction solution, 1 ml of 0.5% (w/v) creatine and 1 ml of 5% (w/v) α-naphthol dissolved in 2.5 N sodium hydroxide was added to the reaction solution, followed by incubation at 37° C. for 10 minutes. Acetoin was then quantified by color comparison of the absorbance (at 525 nm) of the reaction solution, thereby evaluating ALS activity. In addition, since the reaction solution contained a small amount of sodium pyruvate, reaction time 0 was used as control.
(§4) E. coli transformed with pGEX-2T(ALS-wild) constructed in Example 3(5), E. coli transformed with pGEX-2T(ALS-W548L mutant) constructed in Example 5, E. coli transformed with pGEX-2T(ALS-S627I mutant) constructed in Example 5, E. coli transformed with pGEX-2T(ALS P171H mutant) constructed in Example 6, E. coli transformed with pGEX-2T(ALS R172S mutant) constructed in Example 6, E. coli transformed with pGEX-2T(ALS P171H, R172S mutant) constructed in Example 7, E. coli transformed with pGEX-2T(ALS-P171H, W548L mutant) constructed in Example 8, E. coli transformed with pGEX-2T(ALS-P171H, S627I mutant) constructed in Example 8, and E. coli transformed with pGEX-2T(ALS-P171H, W548L, S627I mutant) constructed in Example 9 were respectively shake-cultured (pre-culture) at 27° C. in 2 ml of LB liquid medium containing ampicillin. These types of E. coli were respectively cultured in 250 ml of LB liquid medium containing ampicillin using 1 ml of the pre-culture solution. After culturing overnight, 1 mM IPTG was added to the media, and then culturing was performed for a further 3 to 4 hours, so that the expression of GST fusion protein was induced. In addition, the cells were stored at −80° C. after washing.
(§5) Preparation and purification of ALS from E. coli were performed by the following method. First, the pellet of the transformant E. coli stored at −80° C. was suspended in ALS extraction buffer (potassium phosphate buffer (pH 7.5) containing 30% glycerol and 0.5 mM MgCl2). Specifically, 2.5 ml of the buffer was added to the pellet obtained from 50 ml of the culture solution. The suspension was subjected to ultrasonication (Heat Systems-Ultrasonics, Sonicator W-225R, micro chip, output control 8, interval of approximately 1 second, twice (40 seconds each)), and subjected to centrifugation at 15000×g, 4° C. for 20 minutes, thereby obtaining the supernatant as a crude enzyme solution.
(§6) Herbicide sensitivity of the wild type ALS protein and that of mutant ALS protein were examined using the 9 types of crude enzyme solutions obtained in Example 10. Herbicide sensitivity test was performed according to procedures almost the same as those in Example 2. However, in this example, reaction temperature was 37° C., reaction time was 30 minutes, and 10 mM valine was added to the reaction solution to inhibit ALS activity derived from E. coli. Further, three types of herbicides, bispyribac-sodium, pyrithiobac-sodium, and pyriminobac, were used as PC herbicides; chlorsulfuron was used as a sulfonylurea herbicide; and imazaquin was used as an imidazolinon herbicide. […]

[2] = molecular target: T2, GST fusion P171H/W548L mutant ALS protein (Oryza sativa subsp. japonica, UniProt Q6K2E8, P171H/W548L); test: Herbicide sensitivity of ALS protein expressed in E. coli (crude enzyme solution), P171H/W548L; conditions: for RS ratio/ predicted RS ratio / Predicted RS ratio: P171H/W548L mutant; for RS ratio: P171H/W548L mutant vs wild type; for Predicted RS ratio: product of RS ratios of the 1-point mutants; for inhibition at 100 µM: read-out: inhibition % at the highest concentration among the concentrations tested, P171H/W548L mutant, in 100 μM
T2 construct: made in house; host or cells: E. coli, pGEX-2T(ALS-P171H, W548L mutant); crude supernatant
T2 sequence (Q6K2E8 44-644 P171H/W548L): as the sequence (Q6K2E8 44-644 P171H/W548L/S627I) above, with I584S counted along it
Experimental: as §1, §2, §3, §4, §5, §6

[3] = molecular target: T3, GST fusion P171H/R172S mutant ALS protein (Oryza sativa subsp. japonica, UniProt Q6K2E8, P171H/R172S); test: Herbicide sensitivity of ALS protein expressed in E. coli (crude enzyme solution), P171H/R172S; conditions: for RS ratio/ predicted RS ratio / Predicted RS ratio: P171H/R172S mutant; for RS ratio: P171H/R172S mutant vs wild type; for Predicted RS ratio: product of RS ratios of the 1-point mutants
T3 construct: made in house; host or cells: E. coli JM109, pGEX-2T(ALS P171H, R172S mutant); crude supernatant
T3 sequence (Q6K2E8 44-644 P171H/R172S): as the sequence (Q6K2E8 44-644 P171H/W548L/S627I) above, with R129S, L505W, I584S counted along it
Experimental: as §1, §2, §3, §4, §5, §6

[4] = molecular target: T4, GST fusion W548L mutant ALS protein (Oryza sativa subsp. japonica, UniProt Q6K2E8, W548L); test: Herbicide sensitivity of ALS protein expressed in E. coli (crude enzyme solution), W548L; conditions: for RS ratio: W548L mutant vs wild type
T4 construct: an expression vector having the full-length wild type ALS cDNA incorporated into the Eco RI site of pGEX-2T; made in house; host or cells: E. coli JM109, pGEX 2T(ALS-W548L mutant); crude supernatant
T4 sequence (Q6K2E8 44-644 W548L): as the sequence (Q6K2E8 44-644 P171H/W548L/S627I) above, with H128P, I584S counted along it
Experimental: as §1, §2, §3, §4, §5, §6

[5] = molecular target: T5, GST fusion S627I mutant ALS protein (Oryza sativa subsp. japonica, UniProt Q6K2E8, S627I); test: Herbicide sensitivity of ALS protein expressed in E. coli (crude enzyme solution), S627I; conditions: for RS ratio: S627I mutant vs wild type
T5 construct: an expression vector having the full-length wild type ALS cDNA incorporated into the Eco RI site of pGEX-2T; made in house; host or cells: E. coli JM109, pGEX 2T(ALS-S627I mutant); crude supernatant
T5 sequence (Q6K2E8 44-644 S627I): as the sequence (Q6K2E8 44-644 P171H/W548L/S627I) above, with H128P, L505W counted along it
Experimental: as §1, §2, §3, §4, §5, §6

[6] = read-out: inhibition % at the highest concentration among the concentrations tested

| SMILES | RS ratio/ predicted RS ratio [1] | RS ratio [1] | Predicted RS ratio [1] | inhibition at 100 µM [1, 6] | RS ratio/ predicted RS ratio [2] | RS ratio [2] | Predicted RS ratio [2] | inhibition at 100 µM [2] | IC50 [3] | RS ratio/ predicted RS ratio [3] | RS ratio [3] | Predicted RS ratio [3] | IC50 [4] | RS ratio [4] | IC50 [5] | RS ratio [5] | inhibition at 500 µM [1, 6] | inhibition at 100 µM ([4]; read-out: inhibition % at the highest concentration among the concentrations tested, W548L mutant, in 100 μM) |
| --- | --- | --- | --- | --- | --- | --- | --- | --- | --- | --- | --- | --- | --- | --- | --- | --- | --- | --- |
| COc1cc(OC)nc(Oc2cccc(Oc3nc(OC)cc(OC)n3)c2C(=O)O)n1 [bispyribac-sodium] | >0.084 | >16000 | 190000 | 1.1% | >3.3 | >15000 | 4500 | 5% | 0.048 µM | 0.89 | 7.6 | 8.5 | 3.3 µM | 520 | 260 nM | 41 |  |  |
| COc1nc(C)nc(NC(=O)NS(=O)(=O)c2ccccc2Cl)n1 [chlorsulfuron] | >0.24 |  | 160000 |  | >0.18 | >7700 | 65000 | 16% | 5.5 µM | 5.8 | 420 | 72 | 9.9 µM | 760 | 31 nM | 2.4 | 30% |  |
| CC(C)C1(C)N=C(c2nc3ccccc3cc2C(=O)O)NC1=O (centres unmarked) [imazaquin] |  | >45 | >460 | 15% |  | >45 | >68 | 13% | 3.9 µM | 1.2 | 1.8 | 1.5 |  | >45 | 15000 nM |  |  | 14% |
